Measurements from patent US12054497B2, “Substituted heterocyclic fused cyclic compound, preparation method therefor and pharmaceutical use thereof” (GENFLEET THERAPEUTICS (SHANGHAI) INC., priority 2019, dated 2024).

Assay: Pharmacokinetic evaluation on mice, intravenous administration (Test Example 6)
Type: in vivo
Conditions: mouse, plasma, male CD-1 mice, IV 2 mg/kg; for clearance: read-out: Cl (clearance rate) (converted); for half-life: read-out: T1/2 (half-life) (converted); for Vd: read-out: Vd (volume of distribution)
Protocol: Experimental objective: male CD-1 mice were chosen as tested animals, and the LC-MS-MS method was employed to measure the concentrations of a tested compound in blood plasma of a mouse intravenously and intragastrically administrated with the tested compound at different times. The pharmacokinetic behaviors of tested compounds in mice were studied, and the pharmacokinetic characteristics thereof were evaluated.
Experimental scheme: experimental animals: 18 healthy adult male CD-1 mice (6 to 8 weeks old, and body weight about 30 g) were divided into 6 groups according to the principle of similar body weights: 3 mice in each of IV groups (3 groups), and 3 mice in each of PO groups (3 groups). The animals were purchased from Shanghai Jihui Laboratory Animal Care Co., Ltd.
Formulation: IV group: taking 10 mL of sample solution for example, 4 mg of sample was weighed, orderly added with 0.5 mL of DMSO and […], then added with […] of HP-p-CD, finally added with water to a constant volume of 10 mL, and stirred and subjected to ultrasonic irradiation, thereby obtaining a 0.4 mg/mL clear solution. PO group: an appropriate amount of sample was weighed, orderly added with appropriate amounts of Labrasol and water in a volume ratio of 10:40, and stirred and subjected to ultrasonic irradiation, thereby obtaining a 1.5 mg/mL uniform solution.
Administration: after being deprived of food for one night, the IV groups were intravenously administrated with the formulated solutions, respectively, with an injection volume of 5 mL/kg and a dosage of 2 mg/kg. The PO groups were intragastrically administrated with the formulated solutions, respectively, with an injection volume of […] and a dosage of 15 mg/kg.
Experimental operations: after the intravenous injection groups and the intragastric administration groups of the male CD-1 mice were administrated with the tested compounds, 110 ul of blood was sampled at the following time points: 0.0833, 0.25, 0.5, 1, 2, 4, 6, 8, and 24 hours. The sampled blood was placed into an anticoagulant tube which was added with K2EDTA in advance and preserved in dry ice. The tube was centrifuged for 15 minutes to separate blood plasma, and the separated blood plasma was preserved at −70° C. The animals were allowed to be fed after 4 hours of administration. The LC-MS-MS method was employed to measure the concentration of the tested compounds in the blood plasma after the intravenous and intragastric administration to the mice. The linear range of the method was 1-3000 ng/ml. The blood plasma samples were analyzed after protein precipitation with ACN.

Work on `C=CC(=O)N1CCN2c3c(c(=O)n(-c4c(C)ccnc4C(C)C)c4nc(-c5c(O)cccc5F)c(F)cc34)N(C)C(=O)[C@H]2C1` (single isomer, unassigned) [Compound Z9-2] yielded a clearance of 2.33 mL/min/kg, a half-life of 1.74 h and a Vd of 0.326 L/kg.
With `C=CC(=O)N1C[C@@H]2C(=O)N(C)c3c(c4cc(F)c(-c5c(O)cccc5F)nc4n(-c4c(C)ccnc4C(C)C)c3=O)N2C[C@H]1C` (single isomer, unassigned) [Compound Z10-2] the clearance was 13.5 mL/min/kg, the half-life was 0.941 h and the Vd was 1.06 L/kg.
Molecule `C=CC(=O)N1CCN2c3c(c(=O)n(-c4c(C)ccnc4C(C)C)c4nc(-c5c(O)cccc5F)c(Cl)cc34)N(C)C(=O)[C@H]2C1` (single isomer, unassigned) [Compound Z25-2] has a clearance of 8.32 mL/min/kg, a half-life of 1 h and a Vd of 0.661 L/kg.
`C=CC(=O)N1C[C@@H]2C(=O)N(C)c3c(c4cc(Cl)c(-c5c(O)cccc5F)nc4n(-c4c(C)ccnc4C(C)C)c3=O)N2C[C@H]1C` (single isomer, unassigned) [Compound Z27-2] showed a clearance of 9.83 mL/min/kg, a half-life of 1.08 h and a Vd of 0.777 L/kg.
In the case of `C=CC(=O)N1CCN2c3c(c(=O)n(-c4c(C(C)C)ncnc4C(C)C)c4nc(-c5c(O)cccc5F)c(Cl)cc34)N(C)C(=O)[C@H]2C1` [Compound Z48], the clearance is reported as 25.5 mL/min/kg, the half-life is reported as 1.02 h and the Vd is reported as 1.66 L/kg.
